Test results from patent US20230158025A1 (UNIVERSITY OF UTAH RESEARCH FOUNDATION, priority 2020, published 2023).
Read-outs that look alike come from different tables or passages of the source.

Columns and labels:
recombinant mouse GALK1 = recombinant mouse GALK1 (Mus musculus, UniProt Q9R0N0); experiment: mGALK1 biochemical activity assay (Kinase-Glo Plus, ATP depletion)
Summary of the method: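 Recombinant GALK1 (5 nM) with 100 μM galactose; GALK1 turnover read as ATP depletion by Kinase-Glo Plus luminescence. Reaction ran 1 h at room temperature before detection reagent was added.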

recombinant human GALK1 = recombinant human GALK1 (Homo sapiens, UniProt P51570); experiment: hGALK1 biochemical activity assay (Kinase-Glo Plus, ATP depletion)
Chain of recombinant human GALK1 (P51570 whole entry): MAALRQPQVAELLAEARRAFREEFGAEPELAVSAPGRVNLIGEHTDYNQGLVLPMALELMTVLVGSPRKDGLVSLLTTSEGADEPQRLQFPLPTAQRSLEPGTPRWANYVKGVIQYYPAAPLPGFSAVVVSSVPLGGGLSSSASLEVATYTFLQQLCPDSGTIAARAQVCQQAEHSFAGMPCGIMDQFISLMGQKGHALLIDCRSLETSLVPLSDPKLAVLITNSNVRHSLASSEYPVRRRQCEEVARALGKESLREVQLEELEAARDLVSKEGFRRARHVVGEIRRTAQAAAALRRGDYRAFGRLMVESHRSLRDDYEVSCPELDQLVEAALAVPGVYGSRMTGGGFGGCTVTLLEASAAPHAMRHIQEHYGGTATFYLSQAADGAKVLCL
Summary of the method: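 Recombinant human or mouse GALK1 (5 nM, with 100 μM galactose, in the added enzyme solution) was run with ATP (35 μM in the substrate solution) in HEPES pH 8.0 buffer. Compounds were tested at 11 1/3-step concentrations from 57.4 μM to 0.97 nM. After 1 h at room temperature, remaining ATP was read by Kinase-Glo Plus luminescence.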

[1] = aqueous kinetic solubility
[2] = rat microsomal stability (RLM); conditions: microsomal half-life
[3] = recombinant mouse GALK1, Kinase-Glo Plus ATP depletion, read-out: mGALK
[4] = recombinant human GALK1, Kinase-Glo Plus ATP depletion, read-out: hGALK
[5] = Tables 2-15, 35 μM ATP, 100 μM galactose, 1 h, bracketed figure after some values is undefined and not reported, read-out: mGALK IC50
[6] = Tables 2-15, 35 μM ATP, 100 μM galactose, 1 h, bracketed figure after some values (e.g. −1.2) is undefined and not reported, read-out: hGALK IC50
[7] = recombinant mouse GALK1, Kinase-Glo Plus ATP depletion

Chain of recombinant mouse GALK1 (Q9R0N0 whole entry): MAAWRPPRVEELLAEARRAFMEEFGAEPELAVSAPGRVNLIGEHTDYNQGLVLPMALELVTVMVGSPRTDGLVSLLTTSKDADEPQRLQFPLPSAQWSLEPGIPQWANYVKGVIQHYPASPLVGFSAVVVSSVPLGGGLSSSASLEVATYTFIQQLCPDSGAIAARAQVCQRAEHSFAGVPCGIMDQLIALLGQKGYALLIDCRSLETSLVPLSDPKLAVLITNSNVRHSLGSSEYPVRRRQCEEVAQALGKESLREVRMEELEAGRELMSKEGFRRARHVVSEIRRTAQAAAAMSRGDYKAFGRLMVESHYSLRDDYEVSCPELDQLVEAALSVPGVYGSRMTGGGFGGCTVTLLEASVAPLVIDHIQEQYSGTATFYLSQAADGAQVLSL

Compound | IC50 (recombinant mouse GALK1; [3]) [µM] | IC50 (recombinant human GALK1; [4]) [µM] | Sol. [1] [µg/mL] | Perm. (1 × 10^−6 cm/sec) (PAMPA permeability) | Metab. Stabil. (m) [2] [m] | IC50 (recombinant mouse GALK1; [5]) [µM] | IC50 (recombinant human GALK1; [6]) [µM] | mGALK (μM) (recombinant mouse GALK1; [7]) | hGALK (μM) (recombinant human GALK1; recombinant human GALK1, Kinase-Glo Plus ATP depletion)
CC1=C(C(=O)NCc2cnn(C)c2)C(c2ccccc2Cl)N=C(Nc2nc3cccc(N)c3o2)N1 (centres unmarked) [Compound 82, 2-((7-aminobenzo[d]oxazol-2-yl)amino)-4-(2-chlorophenyl)-6-methyl-N-((1-methyl-1H-pyrazol-4-yl)methyl)-1,4-dihydropyrimidine-5-carboxamide] | 3.43 | 0.39 | >72 | 101.9 1 × 10^−6 cm/sec | >30 | – | – | – | –
CC1=C(C(=O)Nc2cc(C(=O)O)ccn2)[C@@H](c2ccc(C)cc2Cl)N=C(Nc2nc3cccc(N)c3o2)N1 [Compound 84, (S)-2-(2-((7-aminobenzo[d]oxazol-2-yl)amino)-4-(2-chloro-4-methylphenyl)-6-methyl-1,4-dihydropyrimidine-5-carboxamido)isonicotinic acid] | 21.7 | 3.43 | >78 | <1 1 × 10^−6 cm/sec | >30 | 21.7 | 3.43 | – | –
CC1=C(C(=O)Nc2cc(C(=O)O)ccn2)[C@H](c2ccc(C)cc2Cl)N=C(Nc2nc3cccc(N)c3o2)N1 [Compound 85, (R)-2-(2-((7-aminobenzo[d]oxazol-2-yl)amino)-4-(2-chloro-4-methylphenyl)-6-methyl-1,4-dihydropyrimidine-5-carboxamido)isonicotinic acid] | 1.41 | 0.09 | >53 | <1 1 × 10^−6 cm/sec | >30 | 1.41 | 0.09 | – | –
COc1ccc([C@H]2N=C(Nc3nc4cccc(N)c4o3)NC(C)=C2C(=O)Nc2cc(C(=O)O)ccn2)c(Cl)c1 [Compound 86, (S)-2-(2-((7-aminobenzo[d]oxazol-2-yl)amino)-4-(2-chloro-4-methoxyphenyl)-6-methyl-1,4-dihydropyrimidine-5-carboxamido)isonicotinic acid] | 34.3 | 5.44 | >81 | <1 1 × 10^−6 cm/sec | >30 | 34.3 | 5.44 | – | –
COc1ccc([C@@H]2N=C(Nc3nc4cccc(N)c4o3)NC(C)=C2C(=O)Nc2cc(C(=O)O)ccn2)c(Cl)c1 [Compound 87, (R)-2-(2-((7-aminobenzo[d]oxazol-2-yl)amino)-4-(2-chloro-4-methoxyphenyl)-6-methyl-1,4-dihydropyrimidine-5-carboxamido)isonicotinic acid] | 2.43 | 0.15 | >81 | <1 1 × 10^−6 cm/sec | >30 | 2.43 | 0.15 | – | –
CC1=C(C(=O)Nc2cc(-c3nn[nH]n3)ccn2)C(c2ccc(C)cc2Cl)N=C(Nc2nc3ccc(F)cc3o2)N1 (centres unmarked) [Compound 88, N-(4-(2H-tetrazol-5-yl)pyridin-2-yl)-4-(2-chloro-4-methylphenyl)-2-((6-fluorobenzo[d]oxazol-2-yl)amino)-6-methyl-1,4-dihydropyrimidine-5-carboxamide] | 9.68 | 1.37 | <1 | <1 1 × 10^−6 cm/sec | >30 | – | – | – | –
CC1=C(C(=O)Nc2cc(N(C)C)ccn2)C(c2ccc(C)cc2Cl)N=C(Nc2nc3cccc(N)c3o2)N1 (centres unmarked) [Compound 89, 2-((7-aminobenzo[d]oxazol-2-yl)amino)-4-(2-chloro-4-methylphenyl)-N-(4-(dimethylamino)pyridin-2-yl)-6-methyl-1,4-dihydropyrimidine-5-carboxamide] | 15.3 | 3.34 | 4.6 | 179.3 1 × 10^−6 cm/sec | 11.7017 | 15.3 | 3.43 | – | –
CC1=C(C(=O)Nc2cc(N(C)C)ccn2)C(c2ccc(C)cc2Cl)N=C(Nc2nc3ccc(F)cc3o2)N1 (centres unmarked) [Compound 90, 4-(2-chloro-4-methylphenyl)-N-(4-(dimethylamino)pyridin-2-yl)-2-((6-fluorobenzo[d]oxazol-2-yl)amino)-6-methyl-1,4-dihydropyrimidine-5-carboxamide] | 6.85 | 4.32 | 6.2 | 264.3 1 × 10^−6 cm/sec | 17.58 | 6.85 | 4.32 | – | –
CC1=C(C(=O)Nc2cc(B(O)O)ccn2)C(c2ccc(C)cc2Cl)N=C(Nc2nc3ccc(F)cc3o2)N1 (centres unmarked) [Compound 92, (2-(4-(2-chloro-4-methylphenyl)-2-((6-fluorobenzo[d]oxazol-2-yl)amino)-6-methyl-1,4-dihydropyrimidine-5-carboxamido)pyridin-4-yl)boronic acid] | 10.9 | 1.93 | <1 | <3.2 1 × 10^−6 cm/sec | 14.13 | 10.9 | 1.93 | – | –
COc1ccc2nc(NC3=NC(c4ccccc4Cl)C(C(=O)Nc4nnc(-c5cccnc5)s4)=C(C)N3)oc2c1 (centres unmarked) [Compound 93, 4-(2-chlorophenyl)-2-((6-methoxybenzo[d]oxazol-2-yl)amino)-6-methyl-N-(5-(pyridin-3-yl)-1,3,4-thiadiazol-2-yl)-1,4-dihydropyrimidine-5-carboxamide] | 21.7 | 9.68 | <1 | <4.4 1 × 10^−6 cm/sec | >30 | – | – | – | –
CC1=C(C(=O)Nc2nnc(-c3cccnc3)s2)C(c2ccccc2Cl)N=C(Nc2nc3ccc(Cl)cc3o2)N1 (centres unmarked) [Compound 94, 2-((6-chlorobenzo[d]oxazol-2-yl)amino)-4-(2-chlorophenyl)-6-methyl-N-(5-(pyridin-3-yl)-1,3,4-thiadiazol-2-yl)-1,4-dihydropyrimidine-5-carboxamide] | – | 27.3 | <1 | <10.3 1 × 10^−6 cm/sec | >30 | – | – | in- active | –
COc1ccc2oc(NC3=NC(c4ccccc4Cl)C(C(=O)Nc4nnc(-c5cccnc5)s4)=C(C)N3)nc2c1 (centres unmarked) [Compound 95, 4-(2-chlorophenyl)-2-((5-methoxybenzo[d]oxazol-2-yl)amino)-6-methyl-N-(5-(pyridin-3-yl)-1,3,4-thiadiazol-2-yl)-1,4-dihydropyrimidine-5-carboxamide] | – | – | <1 | <19.1 1 × 10^−6 cm/sec | >30 | – | – | in- active | in- active
CC1=C(C(=O)Nc2nnc(-c3cccnc3)s2)C(c2ccccc2Cl)N=C(Nc2nc3cc(C)ccc3o2)N1 (centres unmarked) [Compound 96, 4-(2-chlorophenyl)-2-((5-methylbenzo[d]oxazol-2-yl)amino)-6-methyl-N-(5-(pyridin-3-yl)-1,3,4-thiadiazol-2-yl)-1,4-dihydropyrimidine-5-carboxamide] | 10.9 | 4.85 | <1 | <1.5 1 × 10^−6 cm/sec | >30 | – | – | – | –
CC1=C(C(=O)Nc2nnc(-c3cccnc3)s2)C(c2ccccc2Cl)N=C(Nc2nc3cc(F)ccc3o2)N1 (centres unmarked) [Compound 97, 4-(2-chlorophenyl)-2-((5-fluorobenzo[d]oxazol-2-yl)amino)-6-methyl-N-(5-(pyridin-3-yl)-1,3,4-thiadiazol-2-yl)-1,4-dihydropyrimidine-5-carboxamide] | 19.3 | 5.44 | <1 | <1.5 1 × 10^−6 cm/sec | >30 | – | – | – | –
CC1=C(C(=O)Nc2nnc(-c3cccnc3)s2)C(c2ccccc2Cl)N=C(Nc2nc3cc(Cl)ccc3o2)N1 (centres unmarked) [Compound 98] | 19.3 | 6.11 | <1 | <3.4 1 × 10^−6 cm/sec | >30 | – | – | – | –
